Results on 17 compounds are retold here after patent publication US20050222146A1, “N-substituted-n-sulfonylaminocyclopropane compounds and pharmaceutical use thereof” (priority 2003, published 2005).

One experiment addresses T1, aggrecanase-1 (Homo sapiens, UniProt O75173).
T1 sequence (O75173 213-837): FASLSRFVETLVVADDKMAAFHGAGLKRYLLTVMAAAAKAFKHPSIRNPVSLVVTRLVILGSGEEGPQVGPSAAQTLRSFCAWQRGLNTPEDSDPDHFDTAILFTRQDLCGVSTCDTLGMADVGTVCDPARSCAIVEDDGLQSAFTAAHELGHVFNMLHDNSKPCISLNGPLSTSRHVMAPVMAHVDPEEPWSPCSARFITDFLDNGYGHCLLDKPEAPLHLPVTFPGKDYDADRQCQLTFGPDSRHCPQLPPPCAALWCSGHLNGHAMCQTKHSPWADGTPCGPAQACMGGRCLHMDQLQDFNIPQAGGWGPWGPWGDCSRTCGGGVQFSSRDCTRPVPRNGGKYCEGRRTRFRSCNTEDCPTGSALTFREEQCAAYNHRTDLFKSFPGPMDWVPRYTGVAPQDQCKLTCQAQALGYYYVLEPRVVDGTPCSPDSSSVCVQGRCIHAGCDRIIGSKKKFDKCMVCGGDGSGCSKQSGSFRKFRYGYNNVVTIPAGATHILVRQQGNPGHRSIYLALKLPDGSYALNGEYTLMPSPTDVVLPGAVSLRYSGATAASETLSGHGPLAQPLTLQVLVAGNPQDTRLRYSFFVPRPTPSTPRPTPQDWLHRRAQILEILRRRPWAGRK
As to the kind of experiment: Aggrecanase-1 inhibitory action, Particle Assay (GAG release from aggrecan-containing polyacrylamide particles). It is filed as biochemical. The settings on record: 37° C. for 15 hr, read-out: Experimental Example 1 IC50 AG1. The method, then: Aggrecanase-1 Inhibitory Action
Particle Assay was used for determination of aggrecanase activity.
(§1) The enzyme and substrate were diluted with Tris-HCl buffer, and test compounds were diluted with dimethyl sulfoxide (DMSO).
Test compounds and the enzyme were added into 96-well plate, and polyacrylamide particles containing aggrecan were added as a substrate and the mixture was incubated at 37° C. for 15 hr.
After incubation; the supernatant was transferred to another plate, and mixed with 1,9-dimethylmethylene blue. The absorbance at 595 nm was measured to quantify the amount of glycosaminoglycan (GAG) released in the reaction supernatant. Whale chondroitin sulfate was used as the standard of GAG. The inhibitory activity of the compound in each well (%) was calculated based on the values of enzyme-free well and inhibitor-free well. The inhibitory activity of the compound was represented as IC50 (μM).

The next experiment has as its target T2, MMP-1 (Homo sapiens, UniProt P03956).
T2 sequence (P03956 100-469): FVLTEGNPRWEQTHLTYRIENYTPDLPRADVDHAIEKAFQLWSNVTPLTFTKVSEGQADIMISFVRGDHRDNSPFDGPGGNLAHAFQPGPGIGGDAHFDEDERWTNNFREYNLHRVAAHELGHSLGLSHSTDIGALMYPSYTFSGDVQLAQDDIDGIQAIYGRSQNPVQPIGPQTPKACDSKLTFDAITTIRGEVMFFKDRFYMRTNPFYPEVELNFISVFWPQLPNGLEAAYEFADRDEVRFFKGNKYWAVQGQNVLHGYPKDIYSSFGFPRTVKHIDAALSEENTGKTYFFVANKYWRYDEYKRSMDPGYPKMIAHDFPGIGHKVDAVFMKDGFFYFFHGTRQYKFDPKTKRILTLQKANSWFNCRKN
As to the kind of experiment: MMP-1 inhibitory action, Type I collagen Activity Measurement kit (FITC-labeled collagen type I). The class given is biochemical. The settings on record: 37° C. for 3 hr, read-out: Experimental Example 2 IC50 MMP1. The method, then: For MMP-1 Assay, Type I collagen Activity Measurement kit (YAGAI YU-72013) modified to a 96-well plate format was used.
The principle of the kit is based on the property of collagen that becomes soluble in ethanol after being cleaved by MMP-1.
as §1
The enzyme and test compounds were added into 96-well plate, and fluorescein isothiocianate (FITC)-labeled collagen type I was added as a substrate and the mixture was incubated at 37° C. for 3 hr.
The reaction was terminated by addition of Tris-HCl buffer containing ethanol. After centrifugation, the supernatant containing denatured substrate was transferred to another 96-well plate. The collagenase activity of MMP-1 was determined by measuring FITC fluorescence intensity (excitation wavelength 485 nm, emission wavelength 530 nm) of each well. The inhibitory activity of the compound in each well (%) was calculated based on the values of enzyme-free well and inhibitor-free well. The inhibitory activity of the compound was represented as IC50 (μM).

A word on the IC50: it is the concentration needed to halve the response being measured. Turning to `O=C(O)CN([C@]1(C(=O)O)C[C@H]1c1cccc(Cc2ccccc2)c1)S(=O)(=O)c1ccc(-c2ccc(Cl)cc2)cc1` (relative stereo) [Example 1-44, (1R*, 2S*)-2-(3-benzyl-phenyl)-1-[carboxymethyl-(4′-chloro-biphenyl-4-sulfonyl)-amino]-cyclopropanecarboxylic acid], the IC50 at aggrecanase-1 is below 0.1 µM; on MMP-1, at least 10 µM.

Turning to `O=C(CN([C@]1(C(=O)O)C[C@H]1c1ccccc1)S(=O)(=O)c1ccc(-c2ccc(Cl)cc2)cc1)N1CCCC1` (relative stereo) [Example 1-45, (1R*,2S*)-1-[(4′-chloro-biphenyl-4-sulfonyl)-(2-oxo-2-pyrrolidin-1-yl-ethyl)-amino]-2-phenyl-cyclopropanecarboxylic acid], the IC50 was below 1 µM on aggrecanase-1 and at least 10 µM at MMP-1.

For `COC(=O)CN([C@]1(C(=O)O)C[C@H]1c1ccccc1)S(=O)(=O)c1ccc(-c2ccc(Cl)cc2)cc1` (relative stereo) [Example 1-46, (1R*,2S*)-1-[(4′-chloro-biphenyl-4-sulfonyl)-methoxycarbonylmethyl-amino]-2-phenyl-cyclopropanecarboxylic acid], the IC50 at aggrecanase-1 is below 1 µM; on MMP-1 it was at least 10 µM.

As to `CC(C)COc1cccc([C@@H]2C[C@@]2(C(=O)O)N(CC(=O)O)S(=O)(=O)c2ccc(-c3ccc(Cl)cc3)cc2)c1` (relative stereo) [Example 1-47, (1R*,2S*)-1-[carboxymethyl-(4′-chloro-biphenyl-4-sulfonyl)-amino]-2-(3-isobutoxy-phenyl)-cyclopropanecarboxylic acid], the values for the IC50 at aggrecanase-1 and at MMP-1 were below 0.1 µM and at least 10 µM, respectively.

For the compound `O=C(O)CN([C@]1(C(=O)O)C[C@H]1c1cccc(OC2CCCCC2)c1)S(=O)(=O)c1ccc(-c2ccc(Cl)cc2)cc1` (relative stereo) [Example 1-48, (1R*,2S*)-1-[carboxymethyl-(4′-chloro-biphenyl-4-sulfonyl)-amino]-2-(3-cyclohexyloxy-phenyl)-cyclopropanecarboxylic acid], the figures for the IC50 on aggrecanase-1 and on MMP-1 were below 0.1 µM and at least 10 µM, respectively.

Turning to `O=C(O)c1cccc(CN([C@]2(C(=O)O)C[C@H]2c2cccc(Oc3ccccc3)c2)S(=O)(=O)c2ccc(-c3ccc(Cl)cc3)cc2)c1` (relative stereo) [Example 1-51, (1R*,2S*)-3-{[[1-carboxy-2-(3-phenoxy-phenyl)-cyclopropyl]-(4′-chloro-biphenyl-4-sulfonyl)-amino]-methyl}-benzoic acid], the IC50 at aggrecanase-1 is below 0.1 µM; on MMP-1, at least 10 µM.

With `CCOC(=O)CN([C@]1(C(=O)O)C[C@H]1c1cccc(Oc2ccccc2)c1)S(=O)(=O)c1ccc(-c2ccc(Cl)cc2)cc1` (relative stereo) [Example 1-52, (1R*,2S*)-1-[(4′-chloro-biphenyl-4-sulfonyl)-ethoxycarbonylmethyl-amino]-2-(3-phenoxy-phenyl)-cyclopropanecarboxylic acid], the IC50 is below 1 µM on aggrecanase-1 and at least 10 µM at MMP-1.

Consider `CN([C@]1(C(=O)O)C[C@H]1c1cccc(Oc2ccccc2)c1)S(=O)(=O)c1ccc(-c2ccc(Cl)cc2)cc1` (relative stereo) [Example 1-53, (1R*,2S*)-1-[(4′-chloro-biphenyl-4-sulfonyl)-methyl-amino]-2-(3-phenoxy-phenyl)-cyclopropanecarboxylic acid], for which the IC50 at aggrecanase-1 is below 1 µM; on MMP-1 it was at least 10 µM.

`O=C(O)c1ccc(CN([C@]2(C(=O)O)C[C@H]2c2ccccc2)S(=O)(=O)c2ccc(-c3ccc(Cl)cc3)cc2)o1` (relative stereo) [Example 1-55, 5-{[((1R*,2S*)-1-carboxy-2-phenyl-cyclopropyl)-(4′-chloro-biphenyl-4-sulfonyl)-amino]-methyl}-furan-2-carboxylic acid]: the IC50 on aggrecanase-1 was below 1 µM; at MMP-1, at least 10 µM.

With `O=C(O)c1cccnc1CN([C@]1(C(=O)O)C[C@H]1c1ccccc1)S(=O)(=O)c1ccc(-c2ccc(Cl)cc2)cc1` (relative stereo) [Example 1-56, 2-{[((1R*,2S*)-1-carboxy-2-phenyl-cyclopropyl)-(4′-chloro-biphenyl-4-sulfonyl)-amino]-methyl}-nicotinic acid], the half-maximal inhibitory concentration (IC50) at aggrecanase-1 was below 1 µM; on MMP-1, at least 10 µM.

Take `O=C(O)c1csc(CN([C@]2(C(=O)O)C[C@H]2c2ccccc2)S(=O)(=O)c2ccc(-c3ccc(Cl)cc3)cc2)n1` (relative stereo) [Example 1-60, 2-{[((1R*, 2S*)-1-carboxy-2-phenyl-cyclopropyl)-(4′-chloro-biphenyl-4-sulfonyl)-amino]-methyl}-thiazole-4-carboxylic acid]: the IC50 at aggrecanase-1 is below 1 µM; on MMP-1, at least 10 µM.

As to `O=C(CN([C@]1(C(=O)O)C[C@H]1c1ccccc1)S(=O)(=O)c1ccc(-c2ccc(Cl)cc2)cc1)Nc1nnn[nH]1` (relative stereo) [Example 1-61, (1R*,2S*)-1-{(4′-chloro-biphenyl-4-sulfonyl)-[(1H-tetrazol-5-ylcarbamoyl)-methyl]-amino}-2-phenyl-cyclopropanecarboxylic acid], the IC50 on aggrecanase-1 is below 1 µM; on MMP-1, at least 10 µM.

`CS(=O)(=O)Nc1cccc(CN([C@]2(C(=O)O)C[C@H]2c2ccccc2)S(=O)(=O)c2ccc(-c3ccc(Cl)cc3)cc2)c1` (relative stereo) [Example 1-62, (1R*,2S*)-1-[(4′-chloro-biphenyl-4-sulfonyl)-(3-methanesulfonylamino-benzyl)-amino]-2-phenyl-cyclopropanecarboxylic acid]: the IC50 is below 1 µM at aggrecanase-1 and at least 10 µM on MMP-1.

For `O=C(O)[C@@]1(N(CCNS(=O)(=O)C(F)(F)F)S(=O)(=O)c2ccc(-c3ccc(Cl)cc3)cc2)C[C@H]1c1ccccc1` (relative stereo) [Example 1-63, (1R*,2S*)-1-[(4′-chloro-biphenyl-4-sulfonyl)-(2-trifluoromethanesulfonylamino-ethyl)-amino]-2-phenyl-cyclopropanecarboxylic acid], the IC50 on aggrecanase-1 was below 1 µM; on MMP-1 it was at least 10 µM.

As to `O=C(O)CN([C@]1(C(=O)O)C[C@H]1c1cccc(O)c1)S(=O)(=O)c1ccc(-c2ccc(Cl)cc2)cc1` (relative stereo) [Example 1-66, (1R*,2S*)-1-[carboxymethyl-(4′-chloro-biphenyl-4-sulfonyl)-amino]-2-(3-hydroxy-phenyl)-cyclopropanecarboxylic acid], the IC50 at aggrecanase-1 was below 0.1 µM; on MMP-1, at least 10 µM.

Regarding `CC(C)(C)OC(=O)N1CCC(Oc2cccc([C@H]3C[C@]3(C(=O)O)N(CC(=O)O)S(=O)(=O)c3ccc(-c4ccc(Cl)cc4)cc3)c2)CC1` (relative stereo) [Example 1-67, 4-(3-{(1R*,2S*)-2-Carboxy-2-[carboxymethyl-(4′-chloro-biphenyl-4-sulfonyl)-amino]-cyclopropyl}-phenoxy)-piperidine-1-carboxylic acid tert-butyl ester], the IC50 at aggrecanase-1 is below 0.1 µM; on MMP-1 it was at least 10 µM.

On to `O=C(O)CN([C@]1(C(=O)O)C[C@H]1c1cccc(OC2CCNCC2)c1)S(=O)(=O)c1ccc(-c2ccc(Cl)cc2)cc1` (relative stereo) [Example 1-68, (1R*,2S*)-1-[carboxymethyl-(4′-chloro-biphenyl-4-sulfonyl)-amino]-2-[3-(piperidin-4-yloxy)-phenyl]-cyclopropanecarboxylic acid], for which the IC50 at aggrecanase-1 was below 1 µM; on MMP-1 it was at least 10 µM.
